One series has as its target T1, GPX4 (Homo sapiens, UniProt P36969).
T1 sequence (P36969 1-197): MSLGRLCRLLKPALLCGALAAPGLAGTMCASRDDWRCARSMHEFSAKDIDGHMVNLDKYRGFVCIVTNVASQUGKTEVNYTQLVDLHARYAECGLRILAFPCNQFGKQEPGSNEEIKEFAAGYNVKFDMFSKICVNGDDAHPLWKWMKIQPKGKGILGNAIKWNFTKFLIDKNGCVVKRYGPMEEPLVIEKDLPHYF
The experiment in a line: Intracellular GPX4 activity detection. The series is classed as cell-based. On the set-up: endogenous in cells; host or cells: EJ bladder cancer cells. As to the method: Initially, EJ cells (5 × 10^5) were cultured in 6-well plate with a CO2 incubator overnight at 37 °C. […] Next, EJ cells were collected and washed with PBS for 3 times. Afterwards, the cell lysates were collected by centrifugation at 5000 rpm for 10 min at 4 °C after ultrasonic lysis in an ice bath. Finally, the GPX4 activity were measured with a GPX Assay Kit based on the manufacturer’s instructions.

Series [1] is described as follows: Hydrolysis of the peptide-porphyrin conjugates at pH 7.4 and 6.5 (dialysis, HPLC). The class given is physicochemical. The settings on record: for Hydrolysis of SA (%): mean. The procedure: In vitro hydrolysis analysis of the peptide-porphyrin conjugates was studied in pH values of 7.4 and 6.5 solutions. 20 mg of peptide-porphyrin conjugate was dissolved in 2 mL pH 7.4 buffer solution, which was then transferred into a dialysis bag (MWCO: 1000 Da) and immersed in 25 mL of different pH buffer solutions at 37 °C with continuous shaking respectively. At fixed time intervals (20 min, 40 min, 1 h, 2 h and 4 h), […] chromatography (HPLC, WATERS Alliance HPLC e2489), and an equal volume of fresh buffer solution was replaced to the system. In order to determine the CAA concentration according to the peak area of the CAA, a standard curve of the CAA was plotted, with the peak area as a function of the concentration. […]

For the next series, the system named is EJ cells. The experiment in a line: Intracellular Fe2+ ions detection. The class given is cell-based. As to the method:
Initially, EJ cells (5 × 10^5) were cultured in confocal dish with a CO2 incubator overnight at 37 °C. […] Afterwards, EJ cells were washed with PBS for 3 times and replaced with culture mediums.

A short description of another series: Particle size by DLS. The series is classed as physicochemical. The settings on record: 40 μM, PBS 0.01 M, pH 6.5, with GPX4; Supplementary Fig. 18. The procedure: Nano-ZS 3600 (Malvern Instruments, UK) was used to measure the size distribution of the peptide-porphyrin conjugate solutions. The conjugate solutions (40 μM) were incubated at pH 7.4 or pH 6.5 before measurements. An average value was determined by three repeated measurements at 25 °C for each sample. Besides, transmission electron microscopy (TEM, Tecnai G2 20 S-TWIN) was conducted to observe the morphology and diameters of conjugates in aqueous solution, The conjugates (50 μL, 40 μM) were kept in PB solution at pH 7.4 or pH 6.5, which were dropped on copper meshes. After 5 min, unnecessary liquid was removed and the uranyl acetate solution (10 μL) was dropped on this copper mesh to stain the samples for 10 min. Finally, the copper meshes were washed with deionized water, and dried at room temperature for observation.

The subject of a further series is GPX4 protein. The series is described as follows: Microscale Thermophoresis (MST) ligand binding. The settings on record: for Fnorm (‰), MST original data: labelled GPX4. As to the method: Initially, GPX4 was labeled using Protein Labeling Kit RED-NHS according to the manufacturer’s instructions to investigate the binding affinity of Gi-F-CAA, Gi-F and NGi-F-CAA with GPX4 protein. Afterward, the labelled GPX4 protein was incubated with series of Gi-F-CAA, Gi-F and NGi-F-CAA concentration gradients. Finally, the prepared samples were loaded into silica capillaries and measured with Monolish NT.115. Apparent Kd represented the affinity of assemblies rather than a single molecule. Bovine serum albumin (BSA) was used as control for calculating the apparent binding affinity between Gi-F (nanoparticle) to GPX4 protein. Briefly, as the diameter of nanoparticle is proportional to the molecular weight, according to the reported bovine serum albumin (BSA) protein size and molecular weight (7.2 nm, 66.43 KDa), the molecular weight of Gi-F nanoparticle with an average 78 nm size can be calculated to be […]. The monomer amount Gi-F nanoparticle was calculated as […].
(In general: In MST a laser heats a spot of the sample, and binding alters the fluorescence response.)

As to “FeTCPP-LKLKLK(SA)GACNWLPLYPCPV (disulfide) [Gi-F-SA, control conjugate decorated with non-sensitive succinic anhydride (SA) moieties]”, the “Relative activity of GPX4” value with GPX4 (EJ cells, 8 h, pH 7.4, PBS group normalized as 1, #1) came out at 0.62; with GPX4 (EJ cells, 8 h, pH 7.4, PBS group normalized as 1, #2), 0.59; with GPX4 (EJ cells, 8 h, pH 7.4, PBS group normalized as 1, #3), 0.73; in the series with GPX4 (pH=7.4, replicate #1) it was 0.61; with GPX4 (pH=7.4, replicate #2) it was 0.62; in the series with GPX4 (pH=7.4, replicate #3) it was 0.66. Further, the “Hydrolysis of SA (%)” value in series [1] (pH 6.5, 0 min) worked out at 0%; in series [1] (pH 6.5, 20 min), 1.1%; in series [1] (pH 6.5, 40 min), 1.9%; in series [1] (pH 6.5, 60 min), 2.1%; in series [1] (pH 6.5, 120 min), 2.1%; in series [1] (pH 6.5, 240 min), 2.3%. For the same substance, the “Hydrolysis of SA (%)” value in series [1] (pH 7.4, 0 min) stood at 0%; in series [1] (pH 7.4, 20 min), 1%; in series [1] (pH 7.4, 40 min) it was 1.2%; in series [1] (pH 7.4, 60 min), 1.6%; in series [1] (pH 7.4, 120 min) it was 1.9%; in series [1] (pH 7.4, 240 min) it was 2.4%. Besides, the “hydrolysis at pH 6.5 and 7.4” value in series [1] (pH 6.5 and 7.4, HPLC, Supplementary Fig. 11) was “little hydrolysis”. Also, the “intracellular Fe^2+ (FerroOrange fluorescence), pH 7.4” value with EJ cells (EJ cells, pH 7.4, 8 h) is “no remarkable fluorescence”. Further, the “Concentrations of Fe2+ ions” value came to 13.222 ng/104cells in the series on EJ cells (pH=7.4, replicate #1); 11.221 ng/104cells in the series on EJ cells (pH=7.4, replicate #2); 12.7 ng/104cells in the series on EJ cells (pH=7.4, replicate #3).

In the case of “FeTCPP-LKLKLKGACNWLPLYPCPV (disulfide) [Gi-F]”, the “particle size (DLS) after incubation with GPX4” value in the series “Particle size by DLS” was ~ 90 ± 9 nm. The “Fnorm (‰), MST original data” value with GPX4 protein (nanoparticle ligand concentration 3.07265e-11 (μM)) is reported as 857.598 ‰; in the series on GPX4 protein (nanoparticle ligand concentration 6.14531e-11 (μM)), 848.131 ‰; in the series on GPX4 protein (nanoparticle ligand concentration 1.22906e-10 (μM)), 859.494 ‰; with GPX4 protein (nanoparticle ligand concentration 2.45812e-10 (μM)) it was 850.692 ‰; in the series with GPX4 protein (nanoparticle ligand concentration 4.91623e-10 (μM)) it was 861.283 ‰; with GPX4 protein (nanoparticle ligand concentration 9.8325e-10 (μM)), 853.275 ‰. Moreover, the “Fnorm (‰), MST original data” value in the series on GPX4 protein (nanoparticle ligand concentration 1.9665e-9 (μM)) is listed as 865.165 ‰; in the series with GPX4 protein (nanoparticle ligand concentration 3.933e-9 (μM)), 860.627 ‰; in the series on GPX4 protein (nanoparticle ligand concentration 7.86601e-9 (μM)), 880.817 ‰; with GPX4 protein (nanoparticle ligand concentration 1.5732e-8 (μM)) it was 885.875 ‰; in the series with GPX4 protein (nanoparticle ligand concentration 3.1464e-8 (μM)), 915.502 ‰; in the series on GPX4 protein (nanoparticle ligand concentration 6.29279e-8 (μM)), 920.264 ‰. The “Fnorm (‰), MST original data” value in the series with GPX4 protein (nanoparticle ligand concentration 1.25856e-7 (μM)) was 943.293 ‰; in the series with GPX4 protein (nanoparticle ligand concentration 2.51712e-7 (μM)), 935.723 ‰; with GPX4 protein (nanoparticle ligand concentration 5.03423e-7 (μM)) it was 956.979 ‰; in the series on GPX4 protein (nanoparticle ligand concentration 1.00685e-6 (μM)), 946.244 ‰. Moreover, in the series with GPX4 protein (ratio of MST Kd values), the “increase of binding affinity to GPX4 versus Gi-F-CAA” value is ~ 55 times.

Source of the values: paper PMC10784468 (Nature Communications, 2024).
